Consider three molecules from article PMC10191434 (2023).

Molecules are shown by their SMILES.

This assay concerns modified procaine-binding aptamer (new sequence) (DNA, aptamer) AGACAAGGAAAATCCTTCAACGAAGTGGGTCG
Description: square-wave voltammetry, EAB sensor titration. The settings on record: undiluted bovine CSF, 37 °C, immobilised aptamer; for binding: highest concentration not given.

In general, Kd refers to the constant that tells how readily two partners part at equilibrium. As to `CCN(CC)CCOC(=O)c1ccc(N)cc1`, where the note is “Langmuir-Hill fit, ± is 95% confidence”, the equilibrium dissociation constant (Kd) amounted to 960 ± 30 µM.

With `CCN(CC)CCO`, the binding result is “no”.

Regarding `Nc1ccc(C(=O)O)cc1`, the binding entry was “no”.
